Measured values from patent US11141410B2 (MERCK SHARP & DOHME CORP., priority 2015, dated 2021).

Assays:
MRSA COL (MB5393) [1] = assay: TarO Inhibitor/β-Lactam Synergy Assay (growth, OD600); type: cell-based, Staphylococcus aureus; conditions: for MITC95 TarO inhibitor + 4 μg/mL IPM; Bacteria: SA_MB5393: in combination with 4 μg/mL imipenem (IPM); for MITC95 TarO inhibitor + 8 μg/mL DCX; Bacteria: SA_MB5393: in combination with 8 μg/mL dicloxacillin (DCX)
Procedure: The TarO inhibitor/β-lactam synergy assay was performed to measure the re-sensitization of methicillin-resistant Staphylococci bacteria (MB5393: MRSA COL) to β-lactam antibiotics by TarO inhibitors. MRSA COL is a hospital-acquired penicillinase-negative clinically isolated strain commonly used in Staphylococcus aureus studies and is fully resistant to the antimicrobial bioactivity of β-lactam antibiotics, including but not limited to imipenem and dicloxacillin. […] MRSA COL is fully refractory to β-lactam antibiotic effect at the current clinical breakpoint concentrations and as such MRSA COL is fully viable at these concentrations.
The β-lactam antibiotic concentration was fixed at the clinical breakpoint (imipenem 4 μg/ml or dicloxacillin 8 μg/ml) and the TarO inhibitors were titrated by 2 fold starting from the highest concentration of 200 μM with final DMSO concentration of 2% in the assay. 5×10^5 colony forming unit of MRSA COL in cation-adjusted Mueller Hinton broth (CAMHB) was then mixed and the assay plate was incubated for 20 hours at 37° C. without shaking. After 20 hours, the optical density at 600 nm (OD600) was read for all wells to determine relative growth of MRSA COL.

MRSA COL (MB5393) [2] = assay: as above; type: cell-based; conditions: Staphylococcus aureus, TarO inhibitor alone, >200 μM = 95% growth inhibition not achieved, 20 hours at 37° C., read-out: MITC95 TarO inhibitor alone, Bacteria: SA_MB5393

Structure (SMILES) | MITC95 TarO inhibitor + 4 μg/mL IPM; Bacteria: SA_MB5393 (MRSA COL (MB5393) [1]) [µM] | MITC95 TarO inhibitor + 8 μg/mL DCX; Bacteria: SA_MB5393 (MRSA COL (MB5393) [1]) [µM] | IC95 (MRSA COL (MB5393) [2]) [µM] | MITC95 concentration of β-lactam antibiotic alone (MRSA COL (MB5393) [1]; β-lactam alone, MRSA COL) [µg/mL]
C[C@H]1[C@@H](c2cc(F)cc(Br)c2)OC(=O)N1C(=O)NCc1cncc2ccccc12 [Example 25, (4S,5R)-5-(3-bromo-5-fluorophenyl)-N-(isoquinolin-4-ylmethyl)-4-methyl-2-oxo-1,3-oxazolidine-3-carboxamide] | 0.22 | 1.38 | > 200 | –
C[C@H]1[C@@H](c2cc(C(F)(F)F)cc(C(F)(F)F)c2)OC(=O)N1C(=O)CCc1cccc2ccccc12 [Example 67, (4S,5R)-5-[3,5-bis(trifluoromethyl)phenyl]-4-methyl-3-(3-naphthalen-1-ylpropanoyl)-1,3-oxazolidin-2-one] | 0.01 | – | > 200 | –
Cc1cccnc1CNC(=O)N1C(=O)O[C@H](c2cc(C(F)(F)F)cc(C(F)(F)F)c2)[C@@H]1C [Example 31, (4S,5R)-5-[3,5-bis(trifluoromethyl)phenyl]-4-methyl-N-[(3-methylpyridin-2-yl)methyl]-2-oxo-1,3-oxazolidine-3-carboxamide] | 0.43 | 8.33 | > 200 | –
O=C(CCc1cncc2ccccc12)N1C(=O)O[C@H](c2cc(C(F)(F)F)cc(C(F)(F)F)c2)C12CC2 [Example 101, (R)-7-(3,5-bis(trifluoromethyl)phenyl)-4-(3-(isoquinolin-4-yl)propanoyl)-6-oxa-4-azaspiro[2.4]heptan-5-one] | 0.20 | – | > 200 | –
C[C@H]1[C@@H](c2cc(N(C)C)cc(C(F)(F)F)c2)OC(=O)N1C(=O)NCc1cncc2ccccc12 [Example 98, (4S,5R)-5-[3-(dimethylamino)-5-(trifluoromethyl)phenyl]-N-(isoquinolin-4-ylmethyl)-4-methyl-2-oxo-1,3-oxazolidine-3-carboxamide] | 0.01 | 0.41 | > 200 | –
COc1cc(C(F)(F)F)cc([C@H]2OC(=O)N(C(=O)NCc3cncc4cccnc34)[C@H]2C)n1 [Example 60, (4S,5S)—N-((1,6-naphthyridin-8-yl)methyl)-5-(6-methoxy-4-(trifluoromethyl)pyridin-2-yl)-4-methyl-2-oxooxazolidine-3-carboxamide] | 0.33 | 1.45 | > 200 | –
C[C@H]1[C@@H](c2cc(C(F)(F)F)cc(C(F)(F)F)c2)OC(=O)N1C(=O)NCc1cccc2ccnn12 [Example 2, (4S,5R)-5-[3,5-bis(trifluoromethyl)phenyl]-4-methyl-2-oxo-N-(pyrazolo[1,5-a]pyridin-7-ylmethyl)-1,3-oxazolidine-3-carboxamide] | 0.01 | 0.21 | > 200 | –
C[C@H]1[C@@H](c2cc(C(F)(F)F)cc(C(F)(F)F)c2)OC(=O)N1C(=O)NCc1cncc2cccnc12 [Example 4, (4S,5R)-5-[3,5-bis(trifluoromethyl)phenyl]-4-methyl-N-(1,6-naphthyridin-8-ylmethyl)-2-oxo-1,3-oxazolidine-3-carboxamide] | 0.13 | 0.39 | > 200 | –
C[C@H]1[C@@H](c2cccc(C(F)(F)F)c2)OC(=O)N1C(=O)NCc1cncc2cccnc12 [Example 15, (4S,5R)-4-methyl-N-(1,6-naphthyridin-8-ylmethyl)-2-oxo-5-[3-(trifluoromethyl)phenyl]-1,3-oxazolidine-3-carboxamide] | 0.98 | 4.69 | > 200 | –
C[C@H]1[C@@H](c2cc(F)cc(C(F)(F)F)c2)OC(=O)N1C(=O)NCc1cccc2cncnc12 [Example 30, (4S,5R)-5-[3-fluoro-5-(trifluoromethyl)phenyl]-4-methyl-2-oxo-N-(quinazolin-8-ylmethyl)-1,3-oxazolidine-3-carboxamide] | 0.68 | 4.69 | > 200 | –
C[C@H]1[C@@H](c2cc(F)cc(C(F)(F)F)c2)OC(=O)N1C(=O)NCc1cccc2c1OCCO2 [Example 11, (4S,5R)-N-(2,3-dihydro-1,4-benzodioxin-5-ylmethyl)-5-[3-fluoro-5-(trifluoromethyl)phenyl]-4-methyl-2-oxo-1,3-oxazolidine-3-carboxamide] | 0.13 | 1.42 | > 200 | –
C[C@H]1[C@@H](c2cc(C(F)(F)F)cc(C(F)(F)F)c2)OC(=O)N1C(=O)NCc1nccc2ccoc12 [Example 17, (4S,5R)-5-[3,5-bis(trifluoromethyl)phenyl]-N-(furo[2,3-c]pyridin-7-ylmethyl)-4-methyl-2-oxo-1,3-oxazolidine-3-carboxamide] | 0.39 | 4.30 | > 200 | –
C[C@H]1[C@@H](c2cc(F)cc(C(F)(F)F)c2)OC(=O)N1C(=O)NCc1nccc2sccc12 [Example 14, (4S,5R)-5-[3-fluoro-5-(trifluoromethyl)phenyl]-4-methyl-2-oxo-N-(thieno[3,2-c]pyridin-4-ylmethyl)-1,3-oxazolidine-3-carboxamide] | 0.49 | 5.63 | > 200 | –
O=C(NCc1cncc2ccccc12)N1C(=O)O[C@H](c2cc(F)cc(C(F)(F)F)c2)[C@@H]1CCO [Example 99, (4S,5R)-5-(3-fluoro-5-(trifluoromethyl)phenyl)-4-(2-hydroxyethyl)-N-(isoquinolin-4-ylmethyl)-2-oxooxazolidine-3-carboxamide] | 18.75 | 100 | > 200 | –
C[C@H]1[C@@H](c2cc(F)cc(C(F)(F)F)c2)OC(=O)N1C(=O)NCc1cnc2sccn12 [Example 47, (4S,5R)-5-[3-fluoro-5-(trifluoromethyl)phenyl]-N-(imidazo[2,1-b][1,3]thiazol-5-ylmethyl)-4-methyl-2-oxo-1,3-oxazolidine-3-carboxamide] | 62 | 50 | > 200 | –
C[C@@H]1CN(C(=O)NCc2cncc3ccccc23)C(=O)OC1c1cc(C(F)(F)F)cc(C(F)(F)F)c1 (stereo in doubt) [Example 93, (5R,6S)-6-(3,5-bis(trifluoromethyl)phenyl)-N-(isoquinolin-4-ylmethyl)-5-methyl-2-oxo-1,3-oxazinane-3-carboxamide] | 0.13 | 0.50 | > 200 | –
Cc1cc(C)cc([C@H]2OC(=O)N(C(=O)CCc3cncc4ccccc34)[C@H]2C)c1 [Example 77, (4S,5R)-5-(3,5-dimethylphenyl)-3-(3-isoquinolin-4-ylpropanoyl)-4-methyl-1,3-oxazolidin-2-one] | 0.63 | 5.21 | > 200 | –
Cc1nc(C)c(CNC(=O)N2C(=O)O[C@H](c3cc(F)cc(C(F)(F)F)c3)[C@@H]2C)s1 [Example 43, (4S,5R)-N-[(2,4-dimethyl-1,3-thiazol-5-yl)methyl]-5-[3-fluoro-5-(trifluoromethyl)phenyl]-4-methyl-2-oxo-1,3-oxazolidine-3-carboxamide] | 5.21 | 42 | > 200 | –
COc1cc([C@H]2OC(=O)N(C(=O)NCc3cncc4ccccc34)[C@H]2CO)cc(C(F)(F)F)c1 [Example 55, (4S,5R)-4-(hydroxymethyl)-N-(isoquinolin-4-ylmethyl)-5-[3-methoxy-5-(trifluoromethyl)phenyl]-2-oxo-1,3-oxazolidine-3-carboxamide] | 0.30 | 1.18 | > 200 | –
Cc1onc(-c2c(Cl)cccc2Cl)c1C(=O)N[C@@H]1C(=O)N2[C@@H]1SC(C)(C)[C@@H]2C(=O)O [dicloxacillin, reference compound] | – | – | – | 128
C[C@H]1[C@@H](c2cc(F)cc(C(F)(F)F)c2)OC(=O)N1C(=O)NCc1ccccc1-n1cccc1 [Example 32, (4S,5R)-5-[3-fluoro-5-(trifluoromethyl)phenyl]-4-methyl-2-oxo-N-[2-(1H-pyrrol-1-yl)benzyl]-1,3-oxazolidine-3-carboxamide] | 0.59 | 4.69 | > 200 | –
COc1cc([C@H]2OC(=O)N(C(=O)NCc3cccc4cncnc34)[C@H]2CO)cc(C(F)(F)F)c1 [Example 59, (4S,5R)-4-(hydroxymethyl)-5-[3-methoxy-5-(trifluoromethyl)phenyl]-2-oxo-N-(quinazolin-8-ylmethyl)-1,3-oxazolidine-3-carboxamide] | 1.95 | 10.42 | > 200 | –
